In patent publication US10125150B2, “Crystalline forms of a PI3K inhibitor” (Incyte Corporation, priority 2015, dated 2018):

Legend:
[1] = Dynamic Vapor Sorption (DVS), moisture adsorption/desorption; type: physicochemical; conditions: 25° C.
Experimental: Dynamic Vapor Sorption (DVS) was performed in an SGA-100 Symmetric Vapor Sorption Analyzer from VTI Corporation. The moisture uptake profile was completed in three cycles in 10% RH increments with the first adsorption from 25% to 95% RH, followed by desorption in 10% increments from 95% to 5% RH. The equilibration criteria were 0.0050 wt % in 5 minutes with a maximum equilibration time of 180 minutes. All adsorption and desorption were performed at room temperature (25° C.). No pre-drying step was applied for the sample.
Moisture adsorption/desorption of Form I was analyzed by DVS. […] The shapes of the isotherms indicate weak adsorbent-adsorbate interaction and a low moisture uptake at low vapor concentration.

[2] = Competitive slurry experiments (stability of the crystalline forms), solid characterized by XRPD; type: physicochemical; conditions: 50° C.
Experimental: Forms I and X of the compound of Formula I were slurried together in a methanol-ethyl acetate (1:10) solvent system and heated at 50° C. for 5 days. Specifically, 5 mL of ethyl acetate and 0.5 mL of methanol were combined and heated to 50° C. Form I (from Example 1) was added to the solvent mixture until a cloudy solution formed (about 156 mg), and then additional Form I was added (about 50 mg). Then 50 mg of Form X (prepared as described in Example 12) was added. The mixture was stirred at 50° C. for 5 days and the solid was characterized and monitored by XRPD.
Forms I to XIII of the compound of Formula I were slurried together in a methanol-ethyl acetate (1:10) solvent system at room temperature for 8 days. Specifically, 10 mg of Form I (from Example 1) was added to 1 mL of ethyl acetate with stirring. Then 0.1 mL of methanol was added giving a cloudy solution to which 3 mg of additional Form I (from Example 1) was added. […]
Forms I and X of the compound of Formula I were slurried together in acetone and heated at 50° C. overnight. […] The mixture was stirred at 50° C. overnight and the solid was characterized and monitored by XRPD.
Forms I to XIII of the compound of Formula I were slurried together in acetone at room temperature for 11 days. […] The mixture was stirred at room temperature for 11 days and the resulting solid was characterized and monitored by XRPD.

Q: For `Cc1csc2nc([C@H](C)Nc3ncnc4[nH]cnc34)c(-c3cccc(F)c3)c(=O)n12` [Form I, (S)-7-(1-(9H-purin-6-ylamino)ethyl)-6-(3-fluorophenyl)-3-methyl-5H-thiazolo[3,2-a]pyrimidin-5-one], which “initial water content (DVS)” value ([1]; no pre-drying) is on record?
A: about 0.3%

Q: What about the “water adsorption (DVS)” value ([1]; at 85% RH) of the same compound?
A: 1.8%

Q: What about the resulting crystalline form ([2]; Forms I and X slurried in acetone, overnight) of the same compound?
A: predominantly Form X

Q: What about the resulting crystalline form ([2]; Forms I and X slurried in methanol-ethyl acetate (1:10), 5 days) of the same compound?
A: predominantly Form I
